One assay has as its target T1, gelatinase A (Homo sapiens, UniProt P08253).
T1 construct: endogenous in cells; host or cells: RPMI-7951 cells (endogenous enzyme, purified by gelatin-agarose chromatography)
T1 sequence (P08253 110-660): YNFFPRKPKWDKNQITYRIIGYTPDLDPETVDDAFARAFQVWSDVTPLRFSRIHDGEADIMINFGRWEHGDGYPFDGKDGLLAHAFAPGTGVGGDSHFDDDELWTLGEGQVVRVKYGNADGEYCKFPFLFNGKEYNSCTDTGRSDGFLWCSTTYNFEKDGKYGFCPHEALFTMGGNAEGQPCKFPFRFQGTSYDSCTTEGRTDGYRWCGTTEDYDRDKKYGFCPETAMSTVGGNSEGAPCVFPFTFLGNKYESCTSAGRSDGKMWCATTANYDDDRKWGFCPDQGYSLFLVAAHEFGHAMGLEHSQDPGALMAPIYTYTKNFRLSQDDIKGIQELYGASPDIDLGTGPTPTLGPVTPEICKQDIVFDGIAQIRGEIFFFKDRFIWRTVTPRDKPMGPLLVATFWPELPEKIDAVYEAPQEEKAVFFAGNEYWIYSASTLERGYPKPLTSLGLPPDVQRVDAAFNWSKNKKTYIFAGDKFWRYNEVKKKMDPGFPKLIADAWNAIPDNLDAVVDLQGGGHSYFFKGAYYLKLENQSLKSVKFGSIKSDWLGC
Kind of assay: Inhibition of gelatinase A (72 kDa gelatinase). It is filed as biochemical. The conditions noted are these: statement in words, no value given. On the procedure:
The potency of compounds of the invention as inhibitors of 72 kDa gelatinase may be determined by a procedure based on the method of Sellers et. al, Biochem. J., 171, 493-496 (1979). 72 kDa gelatinase, derived from RPMI-7951 cells is purified by gelatin-agarose chromatography. The enzyme is activated by incubation with aminophenyl mercuric acetate and approximately 0.05 units is incubated with 50μg [^14C]-radiolabellet gelatin in an appropriate buffer for 16 hours at 37° C. At the end of the incubation 50μg bovine serum albumin, together with trichloroacetic acid (final concentration 16%) are added to stop the reaction and to precipitate any undegraded substrate. The reaction tubes are placed on ice for 15 minutes before centrifugation at 10,000g for 15 minutes to sediment the precipitated substrate. A 200μl aliquot of the reaction supernatant is removed and the radioactivity determined by liquid scintillation counting. The effect of the inhibitors is determined by reference to a dose response curve. The IC50 (the concentration of inhibitor required to cause a 50% decrease in enzyme activity) is obtained by fitting a curve to the data and computing the concentration of inhibitor required to achieve 50% inhibition of the enzyme. For each IC50 determination, the effect on gelatinase activity of at least 8 concentrations of the inhibitor are examined. […]

In the next assay the target is collagenase-3 (MMP-13) (Homo sapiens, UniProt P45452). The experiment in a line: Inhibition of collagenase-3 (MMP-13). It is filed as biochemical. Conditions: statement in words, no value given. On the procedure: The potency of compounds of the invention as inhibitors of collagenase may be determined by the procedure of Cawston and Barrett, (Anal. Biochem., 99, 340-345, 1979), whereby a 1mM solution of the compound being tested, or a dilution thereof, is incubated at 37° for 16 hours with collagen and collagenase (buffered with 25mM Hepes, pH 7.5 containing 5mM CaCl2, 0.05% Brij 35 and 0.02% NaN3). The collagen is acetylated ^14C collagen prepared by the method of Cawston and Murphy, (Methods in Enzymology, 80, 711, 1981). The samples are centrifuged to sediment undigested collagen, and an aliquot of the radioactive supernatant removed for assay on a scintillation counter as a measure of hydrolysis. The collagenase activity in the presence of 1mM of the test compound, or a dilution thereof, is compared to activity in a control devoid of inhibitor and the result reported as that of inhibitor concentration effecting 50% inhibition of the collagenase activity (IC50). The potency of compounds of the invention as inhibitors of stromelysin may be determined by the procedure of Cawston et al, (Biochem. J., 195, 159-165, 1981), whereby a 1mM solution of the compound being tested, or a dilution thereof, is incubated at 37° for 16 hours with stromelysin and ^14C acetylate casein (buffered with 25mM Hepes, pH 7.5 containing 5mM CaCl2, 0.05% Brij 35 and 0.02% NaN3). […]

The structures appear in SMILES notation.

Consider `O=C(CC(Cc1ccccc1)S(=O)(=O)N1CCC(Cc2ccccc2)CC1)NO` (centres unmarked) [Example 2, 3-(4-Benzyl-piperidine-1-sulfonyl)-N-Hydroxy-4-phenyl-butyramide], for which the “inhibitor of gelatinase A” value on gelatinase A is listed as “inhibitor of gelatinase A”.
Consider `O=C(CC(Cc1ccccc1)S(=O)(=O)N1CCC(COc2ccc(F)cc2)CC1)NO` (centres unmarked) [Example 6, 3-[4-(4-Fluoro-phenoxymethyl)-piperidine-1-sulfonyl]-N-hydroxy-4-phenyl-butyramide], for which the “inhibitor of collagenase-3 (MMP-13)” value on collagenase-3 (MMP-13) is reported as “inhibitor of collagenase-3 (MMP-13)”.

The values above are taken from patent US6479502B1, “Hydroxamic acid derivatives as proteinase inhibitors” (British Biotech Pharmaceuticals, priority 1998, dated 2002).
